According to BigSolDB 2.1:

CCOC(=O)c1c(CSc2ccccc2)n(C)c2cc(Br)c(O)c(CN(C)C)c12.Cl.O
solubility (mole fraction)
Conditions	293.15 K	298.15 K	303.15 K	308.15 K	313.15 K	318.15 K	323.15 K	328.15 K	333.15 K
in DMF	0.0228	0.0244	0.0276	0.0317	0.0351	0.0396	0.0457	0.0513	0.0596
in NMP	0.0325	0.0352	0.0375	0.0417	0.0462	0.0503	0.0554	0.0635	0.0722
in THF	0.000382	0.000492	0.000678	0.000947	0.00125	0.00163	0.00211	0.00265	–
in acetone	0.000193	0.000252	0.000364	0.000524	0.000696	0.000937	0.00128	–	–
in ethanol	0.00973	0.0116	0.0132	0.0154	0.018	0.0234	0.0294	0.0366	0.0436
in ethyl acetate	7.86e-05	0.000101	0.000125	0.000158	0.0002	0.000245	0.000295	0.000354	0.000426
in isopropanol	0.00114	0.00161	0.0021	0.0029	0.00356	0.00476	0.00602	0.00749	0.00955
in methanol	0.0405	0.0442	0.0494	0.0541	0.0622	0.0715	0.0786	0.0903	–
in n-butanol	0.00344	0.00441	0.00545	0.00709	0.00865	0.0105	0.0127	0.0159	0.0203
in n-propanol	0.00522	0.00628	0.00728	0.00878	0.0112	0.0141	0.0171	0.0214	0.027
in water	5.82e-05	7.34e-05	8.66e-05	0.000108	0.000126	0.000156	0.000204	0.000251	0.000309
